Experimental findings from patent US20100204141A1, “USE OF BPP-B AS A THERAPEUTIC AGENT” (priority 2007, published 2010) are described below.

Square brackets hold non-standard residues; d marks the D form. Peptide text beside a SMILES is read from it. pGlu = O=C1CC[C@@H](C(=O)O)N1

The assay concerns drug-resistant Mycobacterium tuberculosis. The settings on record: 5 micrograms per ml.

For `CC[C@H](C)[C@H](NC(=O)[C@H](CCCCN)NC(=O)[C@@H]1CCCN1C(=O)[C@H](CCCNC(=N)N)NC(=O)[C@@H]1CCCN1C(=O)[C@@H]1CCCN1C(=O)[C@H](CC(C)C)NC(=O)CNC(=O)[C@@H]1CCC(=O)N1)C(=O)N1CCC[C@H]1C(=O)N1CCC[C@H]1C(=O)O` [Bradykinin potentiator B, Pyr-Gly-Leu-Pro-Pro-Arg-Pro-Lys-Ile-Pro-Pro-OH] ([pGlu]GLPPRPKIPP-OH), the “% inhibition” value is 0.0%.

By % inhibition is commonly meant the share of the control response that was lost under treatment. High values mean strong suppression, low ones little suppression.
